This note sets out measurements from patent US11046660B2, “Compounds and their use as PDE4 activators” (MIRONID LIMITED, priority 2016, dated 2021).

Structures are written as SMILES.

Experiment [1] has as its target T1, full-length human PDE4D5 (Homo sapiens, UniProt Q08499).
T1 construct: stably expressed the full-length human PDE4D5, PDE4A4 and PDE4B1 long isoforms; made in house; cytosol fraction of cell lysate
The experiment can be described thus: PDE4D5 long form enzyme activation radio-assay (Experiment 1, Protocol A or B). The class given is biochemical. The settings on record: for activation at 30 µM: mean % increase in counts over basal activity. The text has this: (§1) Experiment 1: Identification of PDE4 Long Form Activators of the Present Invention Using Full-Length Human PDE4 Isoforms PDE4D5, PDE4A4, PDE4B1 and PDE4B2
(§2) HEK 293 cells were transfected with pDEST™ PDE4 expression vectors using Lipofectamine LTX/Plus reagent (Invitrogen) as outlined by the manufacturer and clonal isolates expanded to obtain cell lines that stably expressed the full-length human PDE4D5, PDE4A4 and PDE4B1 long isoforms and the full length human PDE4B2 short isoform. These were called the HEK-PDE4D5, HEK-PDE4A4, HEK-PDE4B1 and HEK-PDE4B2 cell lines, respectively.
(§3) HEK-PDE4D5 cells were seeded out in 100 mm plates and incubated at 37° C. in an atmosphere of 5% CO2, 95% air. Cell lysates were prepared using KHEM buffer [50 mM KCl, 10 mM EGTA, 50 mM HEPES (pH 7.2), 1.92 mM MgCl2].
(§4) To prepare the cell lysates, the 100 mm plates containing the cells were placed on ice and washed with ice-cold PBS (phosphate buffered saline, pH 7.4). KHEM buffer (500 μl) was added to the cells. Cells were then scraped off the plate and triturated using a needle (BD Microlance™ 0.8, 40 mm). The lysed cells were then centrifuged at 2000 rpm for 10 minutes to remove cell debris and the supernatant (cell lysate containing recombinant PDE4D5) was transferred to a fresh tube and kept on ice.
(§5) The cell lysate containing recombinant PDE4D5 was transferred into a centrifuge tube and placed into an ultracentrifuge (BECKMAN COULTER) and spun at high speed (100,000 g) for 30 minutes at 4° C. The cytosol fraction was then collected and its protein amount determined using a BCA protein assay.
(§6) PDE assays were performed using a final concentration of 10 mM Tris/5 mM MgCl2 and 1 μM [^3H]-cAMP (Perkin Elmer) plus PDE4D5 cell lysate cytosol fraction, containing over-expressed PDE4D5, with and without test compound. Incubations were performed at 30° C. for 5 minutes. The samples were then placed in a boiling water bath for 2 minutes to denature the PDE enzyme, and returned to ice. Samples were allowed to cool for 10 min after which snake venom 5′-nucleotidase (25 μl, 1 mg/ml; Sigma) was added. The tubes were vortexed and incubated in a water bath at 30° C. for 10 minutes, to attain conversion of [^3H]-5′-AMP to [^3H]-adenosine, and then placed on ice. Dowex ion exchange resin (Sigma) prepared as a 1:1 Dowex: water stock was thoroughly re-suspended and diluted 2:1 with ethanol. The resulting Dowex suspension (0.4 ml) was added to each tube. Tubes were vortexed to mix and then incubated on ice for at least 15 minutes before a final vortex. The Dowex resin was pelleted by centrifugation at 13,000 g at 4° C. for 3 minutes and 150 μl of the supernatant was removed to an Eppendorf tube containing 1 ml of ScintiSafe3 scintillation fluid (Fisher). Tubes were vortexed thoroughly to mix and the recovered [^3H]-adenosine was quantified by measuring counts over 1 minute in a scintillation counter.
(§7) The % increase in counts in the presence of test compound at a particular concentration indicates the % increase in enzyme activity at that concentration.
(§8) PDE assays were performed in thin walled V-bottomed 96-well plates. The assays were performed at a final concentration of 10 mM Tris/5 mM MgCl2 plus PDE4D5 cell lysate cytosol fraction, containing over-expressed PDE4D5, with and without test compound. The lysate/compound mix were incubated together for 15 min at room temperature on an orbital shaker prior to addition of [^3H] cAMP (final concentration 1 μM [^3H] cAMP; Perkin Elmer) to a final volume of 50 μl per reaction. The reactions were then incubated for 10 minutes at 30° C., terminated by heating for 2 min at 95° C. and allowed to cool. Snake venom (12.5 μl of 1 mg/ml; Crotalus atrox, Sigma) was then added and the plates were agitated and incubated for a further 15 minutes at 30° C. […]

For experiment [2], the target named is T2, full-length human PDE4B2 (Homo sapiens, UniProt Q07343).
T2 construct: and the full length human PDE4B2 short isoform; made in house; cytosol fraction of cell lysate
T2 sequence (Q07343 1-564 isoform Q07343-2): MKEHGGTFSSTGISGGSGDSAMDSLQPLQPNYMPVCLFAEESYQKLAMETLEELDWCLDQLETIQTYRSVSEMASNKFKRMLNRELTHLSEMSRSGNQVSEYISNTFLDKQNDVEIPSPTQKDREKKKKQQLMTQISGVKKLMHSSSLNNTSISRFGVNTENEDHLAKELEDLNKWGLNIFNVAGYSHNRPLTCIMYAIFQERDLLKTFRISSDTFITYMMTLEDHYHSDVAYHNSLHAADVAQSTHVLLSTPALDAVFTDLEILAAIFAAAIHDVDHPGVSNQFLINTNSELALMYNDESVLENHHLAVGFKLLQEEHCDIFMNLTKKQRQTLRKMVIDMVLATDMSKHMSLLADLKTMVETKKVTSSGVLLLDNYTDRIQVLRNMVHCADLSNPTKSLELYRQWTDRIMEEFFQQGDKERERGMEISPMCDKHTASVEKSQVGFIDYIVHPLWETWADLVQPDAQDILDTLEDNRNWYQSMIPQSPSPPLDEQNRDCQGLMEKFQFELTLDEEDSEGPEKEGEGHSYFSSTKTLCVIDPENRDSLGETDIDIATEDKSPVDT
The experiment can be described thus: PDE4B2 short form enzyme activation radio-assay (Experiment 1, Protocol A or B). The class given is biochemical. The settings on record: for activation at 30 µM: mean % increase in counts over basal activity.
Text: as §1, §2, §3, §4, §5, §6, §7, §8

T1 sequence (Q08499 1-745 isoform Q08499-6): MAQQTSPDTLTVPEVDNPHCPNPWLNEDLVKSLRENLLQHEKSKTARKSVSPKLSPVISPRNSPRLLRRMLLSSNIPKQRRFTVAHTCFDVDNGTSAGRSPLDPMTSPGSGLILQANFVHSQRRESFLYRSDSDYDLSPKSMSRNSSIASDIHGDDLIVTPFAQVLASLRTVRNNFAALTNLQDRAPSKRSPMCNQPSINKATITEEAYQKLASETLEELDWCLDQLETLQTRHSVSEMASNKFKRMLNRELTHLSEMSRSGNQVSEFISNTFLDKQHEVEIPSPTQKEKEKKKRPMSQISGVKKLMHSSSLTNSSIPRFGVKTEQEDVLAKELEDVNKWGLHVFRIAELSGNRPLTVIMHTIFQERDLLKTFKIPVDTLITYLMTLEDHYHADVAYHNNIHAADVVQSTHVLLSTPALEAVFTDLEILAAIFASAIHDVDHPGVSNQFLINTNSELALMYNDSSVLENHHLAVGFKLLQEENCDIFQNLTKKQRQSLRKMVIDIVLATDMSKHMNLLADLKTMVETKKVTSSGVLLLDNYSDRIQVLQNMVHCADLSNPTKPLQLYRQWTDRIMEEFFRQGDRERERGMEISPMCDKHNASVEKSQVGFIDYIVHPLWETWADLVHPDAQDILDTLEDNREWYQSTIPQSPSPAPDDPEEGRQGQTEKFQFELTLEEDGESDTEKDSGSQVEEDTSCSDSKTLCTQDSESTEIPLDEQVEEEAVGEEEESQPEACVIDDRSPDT

In the case of `CCOC(=O)c1cc(-c2ccc(Cl)cc2)nn1CC(=O)NCc1cccc(OC)c1` [Example 27, Ethyl 3-(4-chlorophenyl)-1-{[(3-methoxybenzyl)carbamoyl]methyl}-1H-pyrazole-5-carboxylate], the figures for the activation at 30 µM in experiment [1] (Protocol B) and in experiment [2] (Protocol B) were 75.1% and 7.6%, respectively.

Turning to `CCOC(=O)c1nc(-c2ccc(Cl)c(F)c2)nn1CC(=O)NCc1ccccc1` [Example 2, Ethyl 1-[(benzylcarbamoyl)methyl]-3-(4-chloro-3-fluorophenyl)-1H-1,2,4-triazole-5-carboxylate], the activation at 30 µM in experiment [1] (Protocol A) is 92.9%; in experiment [2] (Protocol A), -2.5%. The “activation of PDE4 long form PDE4D5 (in words)” value in experiment [1] (Protocol A, FIG. 1(a)) was “dose dependent activation”. The “activation of PDE4 short form PDE4B2 (in words)” value in experiment [2] (Protocol A, FIG. 1(b)) was “lack of activation”.

Turning to `COC(=O)c1nc(-c2ccc(Cl)c(F)c2)nn1CC(=O)NCc1ccccc1` [Example 3, Methyl 1-[(benzylcarbamoyl)methyl]-3-(4-chloro-3-fluorophenyl)-1H-1,2,4-triazole-5-carboxylate], the activation at 30 µM in experiment [1] (Protocol A) is 62.6%; in experiment [2] (Protocol A), -0.9%. For the molecule `O=C(Cn1nc(-c2ccc(Cl)c(F)c2)nc1C(=O)NC1CCCCC1)NCc1cccc(F)c1` [Example 22, 3-(4-chloro-3-fluorophenyl)-1-{[(3-fluorobenzyl)carbamoyl]methyl}-N-cyclohexyl-1H-1,2,4-triazole-5-carboxamide], in experiment [1] (Protocol B), the activation at 30 µM came out at 53.1%. The same measure, in the same setting: in the case of `COCCNC(=O)c1nc(-c2ccc(Cl)c(F)c2)nn1CC(=O)NCc1cccc(OC)c1` [Example 21, 3-(4-chloro-3-fluorophenyl)-1-{[(3-methoxybenzyl)carbamoyl]methyl}-N-(2-methoxyethyl)-1H-1,2,4-triazole-5-carboxamide] it was 105%.

`CCc1nc(-c2ccc(Cl)c(F)c2)cn1CC(=O)NCc1cc(Cl)cc(Cl)c1` [Example 30, 2-[4-(4-chloro-3-fluorophenyl)-2-ethyl-1H-imidazol-1-yl]-N-(3,5-dichlorobenzyl) acetamide]: the activation at 30 µM in experiment [1] (Protocol B) was found to be 87.6%. Consider `CCNC(=O)c1nc(-c2ccc(Cl)c(F)c2)nn1CC(=O)NCc1cccc(F)c1` [Example 19, 3-(4-chloro-3-fluorophenyl)-1-{[(3-fluorobenzyl)carbamoyl]methyl}-N-ethyl-1H-1,2,4-triazole-5-carboxamide], for which the activation at 30 µM in experiment [1] (Protocol B) was determined as 84.1%. As to `COC(=O)c1cc(-c2cccc(OC)c2)nn1CC(=O)NCc1cccc(F)c1` [Example 24, Methyl 1-{[(3-fluorobenzyl)carbamoyl]methyl}-3-(3-methoxyphenyl)-1H-pyrazole-5-carboxylate], in experiment [1] (Protocol B), the activation at 30 µM is 87.4%.

As to `CCc1nc(-c2ccc(Cl)c(F)c2)nn1CC(=O)NCc1cnc[nH]1` [Example 29, N-[(1H-imidazol-5-yl)methyl]-2-[3-(4-chloro-3-fluorophenyl)-5-ethyl-1H-1,2,4-triazol-1-yl]acetamide], the activation at 30 µM in experiment [1] (Protocol B) came to 31.9%. Still for that read-out and setting: next, `COc1cccc(CNC(=O)Cn2nc(-c3ccc(Cl)c(F)c3)nc2C(=O)NC(C)C)c1` [Example 17, 3-(4-chloro-3-fluorophenyl)-1-{[(3-methoxybenzyl)carbamoyl]methyl}-N-isopropyl-1H-1,2,4-triazole-5-carboxamide]: 81.1%. For the molecule `COc1cccc(CNC(=O)Cn2nc(-c3ccc(Cl)c(F)c3)nc2C(=O)N(C)C)c1` [Example 18, 3-(4-chloro-3-fluorophenyl)-1-{[(3-methoxybenzyl)carbamoyl]methyl}-N,N-dimethyl-1H-1,2,4-triazole-5-carboxamide], the activation at 30 µM in experiment [1] (Protocol B) amounted to 83.9%.

Take `CCOC(=O)c1cc(-c2ccc(Cl)cc2)nn1CC(=O)NCc1cccc(F)c1` [Example 23, Ethyl 3-(4-chlorophenyl)-1-{[(3-fluorobenzyl)carbamoyl]methyl}-1H-pyrazole-5-carboxylate]: in experiment [1] (Protocol B), the activation at 30 µM came to 93.7%.
